Measurements: patent publication US9976141B2, “Compositions and methods for inhibiting gene expression of Hif2alpha” (Arrowhead Madison Inc., priority 2015, dated 2018)

Test system: human (tumor) Hif2α (EPAS1) mRNA
Test: Hif2α knockdown in orthotopic RCC tumor bearing mice, single injection of RNAi trigger-delivery polymer conjugate, RT-qPCR (Table 7)
Type: in vivo
Details: RNAi trigger 80 μg, polymer 126 400 μg; single tail vein injection; relative to isotonic glucose
Procedure, shortened: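 A single intravenous dose of Hif2α RNAi trigger–delivery polymer conjugate, or isotonic glucose vehicle, was given to nude mice with subcapsular A498-SEAP renal tumours (about 5–6 weeks old). At the indicated time, tumour RNA was assayed by biplex TaqMan qPCR against CycA, and relative expression was calculated by ΔΔCT versus vehicle.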

| Substance | Relative Expression day 4 (Hif2α mRNA in kidney tumor) |
| --- | --- |
| AD01291 (antisense TUUCAUGAAAUCGUUACGUUGGC; sense CAACGUAACGAUUUCAUGAAA; Hif2alpha RNAi agent antisense strand; modified_base 2,4,6,8,10,14,16,18,20 /mod_base = “2′-deoxy-2′-fluoro corresponding nucleoside”; modified_base 3,5,7,9,11,12,13,15,17,19,21,22,23 /mod_base = “2′-O-methyl corresponding nucleoside”; modified_base 2,3,22,23 /mod_base = “5′-phosphorothioate corresponding nucleotide”; Hif2alpha RNAi agent sense strand; modified_base 1,3,5,7,9,10,11,13,15,17,19,21 /mod_base = “2′-deoxy-2′-fluoro corresponding nucleoside”; modified_base 2,4,6,8,12,14,16,18,20 /mod_base = “2′-O-methyl corresponding nucleoside”; modified_base 2,3 /mod_base = “5′-phosphorothioate) | 0.19 |
| AD01292 (antisense TUUCAUGAAAUCGUUACGUUGGC; sense CAACGUAACGAUUUCAUGAAA; Hif2alpha RNAi agent antisense strand; modified_base 2,4,6,8,10,14,16,18,20 /mod_base = “2′-deoxy-2′-fluoro corresponding nucleoside”; modified_base 3,5,7,9,11,12,13,15,17,19,21,22,23 /mod_base = “2′-O-methyl corresponding nucleoside”; modified_base 2,3,22,23 /mod_base = “5′-phosphorothioate corresponding nucleotide”; Hif2alpha RNAi agent sense strand; modified_base 3,5,7,9,10,11,13,15,17,19,21 /mod_base = “2′-deoxy-2′-fluoro corresponding nucleoside”; modified_base 2,4,6,8,12,14,16,18,20 /mod_base = “2′-O-methyl corresponding nucleoside”; modified_base 1 /mod_base = “2′-3′ seco correspondin) | 0.27 |
| AD01293 (antisense TUUCAUGAAAUCGUUACGUUGGCUGU; sense UAUAUCAACGUAACGAUUUCAUGAAA; Hif2alpha RNAi agent antisense strand; modified_base 25 modified base = “2′-hydroxy corresponding nucleoside”; modified_base 2,4,6,8,10,14,16,18,20 /mod_base = “2′-deoxy-2′-fluoro corresponding nucleoside”; modified_base 3,5,7,9,11,12,13,15,17,19,21,22,23,24,26 /mod_base = “2′-O-methyl corresponding nucleoside”; modified_base 2,3,23,24 /mod_base = “5′-phosphorothioate corresponding nucleotide”; Hif2alpha RNAi agent sense strand; modified_base 2,4 modified base = “2′-hydroxy corresponding nucleoside”; modified_base 6,8,10,12,14,15,16,18,20,22,24,26 /mod_base = “2′-deoxy-2′-fluoro correspondin) | 0.20 |
